For data set [1] the following is noted: clinical trials discontinued; cited from earlier work.
The subject of another data set is SK-BR3 cells. Description: Anti-proliferative effect / cytotoxicity on SK-BR-3 breast tumor cells (crystal violet, FIG. 4). The format is cell-based, human.

Method for SK-BR3 cells: SK-BR-3 human breast carcinoma cells were from The American Type Culture Collection (Rockville, Md.). […] SK-BR-3 cells were cultured in high glucose DMEM:Ham's F-12 (50:50) supplemented with 10% heat-inactivated fetal bovine serum and 2 mM 1-glutamine (all from GIBCO/BRL, Grand Island, N.Y.).
Cells were plated at the following densities in 96-well microtiter culture plates: 2×10^4 per well for SK-BR-3; 10^4 per well for HMEC, SAEC and NHEK; and 3.5×10^4 per well for human hepatocytes (pre-plated on collagen-coated plates by In Vitro Technologies) and allowed to adhere overnight in the incubator (37° C., 5% CO2). […] After a 3 day incubation, the media were removed, the cell monolayers washed once with PBS and stained with crystal violet dye (0.5% crystal violet, 20% methanol).
For all experiments, after removal of the crystal violet dye, plates were allowed to air-dry overnight. The dye was then eluted with 0.1 M sodium citrate:ethanol (50:50), pH 4.2 and the plates read in an SLT 340 ATC plate-reader at a wavelength of 540 nm. Each treatment group consisted of 4 replicates and the data are represented as mean O.D.540+/− standard error or relative to cell proliferation as compared to untreated control cells (mean+/−s.e.).

As for `COc1cc2cc(c1Cl)N(C)C(=O)C[C@H](OC(=O)[C@H](C)N(C)C(C)=O)[C@]1(C)O[C@H]1[C@H](C)[C@@H]1C[C@@](O)(NC(=O)O1)[C@H](OC)/C=C/C=C(\C)C2` [maytansine], in data set [1], the “adverse effects in clinical trials” value is reported as “peripheral neuropathy”. For the compound “RITUXAN®: control, unrelated monoclonal antibody RITUXAN®”, in the data set on SK-BR3 cells, the cell growth inhibition result is “did not inhibit cell growth”.

The values are drawn from patent US20090304689A1, “METHODS FOR THE IDENTIFICATION OF POLYPEPTIDE ANTIGENS ASSOCIATED WITH DISORDERS INVOLVING ABERRANT CELL PROLIFERATION AND COMPOSITIONS USEFUL FOR THE TREATMENT OF SUCH DISORDERS” (priority 2001, published 2009).
